Key:
cutaneous sensory axons = experiment: Axon branch number in caudal fin (acetylated tubulin staining); type: in vivo, zebrafish; settings: for axon branch number: 96 hr; for axon branches in the caudal fin: 96 hr paclitaxel
Protocol: The stock solution was divided into 20-30 μl aliquots and stored at −20 °C until use (maximal 6 months). Immediately prior to use, paclitaxel was diluted in Ringer's solution and added to dechorionated larval zebrafish. The larval fish were placed individually or in small groups into wells of a 12-well plate containing the treatment solutions. The control group was 0.05% DMSO. Plates were incubated at 28.5 °C and protected from light. Treatment lengths are indicated in the Drawings, Description of the Drawings, and Examples where appropriate. […] EMD534085, Eg5 inhibitor (MedChemExpress, Cat. No. HY-15000) was diluted in 100% DMSO to make a 10 mM stock solution and stored at −20 °C. […] The solutions were exchanged every 48 hr.
Larval fish were transferred into […] glass vials and fixed in 4% paraformaldehyde (PFA)/1× Phosphate-buffered saline (PBS) for 1.5 hr at room temperature, with gentle rocking. Following a 5-minute incubation in 1×PBS+0.1% Tween-20 (PBST), zebrafish were permeabilized in 1×PBS+0.1% Triton X-100 for 10-30 min. Larval fish were transferred into 2 ml reaction tubes and incubated in blocking buffer (1×PBST+5% BSA) for 30 min at room temperature, with rocking. Larval fish were further incubated overnight in antibody solution (Millipore Sigma, Cat. No. AB3201, 1:300 rabbit anti-GluTub; Sigma, Cat No. T6793, 1:500 mouse anti-acetylated tubulin) in blocking buffer at 4 °C, on a rotator. The next morning, larval fish were transferred into 6-well plates and washed 4×15 min in 1×PBST at room temperature, with rocking. This was followed by incubation in secondary antibody (goat anti-rabbit Cy5, Abcam, Cat. No. ab97077; goat anti-mouse Cy3, Abcam, Cat. No. ab97035) and 1:10,000 Hoechst 33342 (ThermoFisher Scientific, Cat. No. 62249, 20 mM solution) in blocking buffer for 1 hr at room temperature, with rocking. Fish were covered to avoid bleaching. Fish were washed for 4×15 min in 1×PBST at room temperature, with rocking, and immediately mounted for imaging on glass bottom petri dishes (Spectrum Laboratory Products, Cat. No. 750-10403-UE) using 1% agarose (Thermo Fisher Scientific, Cat. No. 16520050). A 1:200 dilution was used for mouse alpha-tubulin antibody (Proteintech, Cat. No. 66031-1) and a 1:1,000 dilution of donkey anti-mouse IgG Alexa488 (ThermoFisher Scientific, Cat. No. A-21202) for secondary detection. For Nox1 immunostaining, a 1:300 dilution of primary antibody (Anti-NOX1 Rabbit Polyclonal Antibody, Avantar, Cat. No. 102164-796) and a 1:1,000 dilution of secondary goat anti-rabbit Cy2 (Abcam, Cat. No. ab6940) antibody was used. Eg5 antibody (Abcam, Cat. No. 61199) was used at a 1:100 and secondary goat anti-rabbit Cy2 (Abcam, Cat. No. ab6940) at 1:1,000 dilution.
Axon branch number quantifications were performed by drawing a 50 μm line across the dorsal, medial, and ventral caudal fin edge region at a distance of 100 μm parallel to the fin edge (which was determined to be the most reliable region to quantify distal branch numbers). Axons traversing this line were counted and averaged per treatment group. Axonal fluorescence measurements were taken using the Imaris Spots function by manually placing spots along the axon and using the fluorescence intensity profile measurements MatLab tool.
Stretching was performed after 96 hr treatment, followed by 2 hr post-stretch fixation, and staining for detection of acetylated tubulin in axons.
To further validate Eg5 as the pharmacological target of EMD534085 in axon regeneration, zebrafish injected with kif11 CRISPR oligo were also analyzed.

[1] = system: caudal fin keratinocytes (mitosis); experiment: Keratinocyte mitosis, 12 hr time-lapse imaging of h2a:h2a-GFP fish; type: in vivo, zebrafish
Protocol: (§1) Fish were anesthetized in 2-phenoxyethanol (1:1000) in Ringer's solution prior to imaging and mounted in 1.2% agarose. EB3-GFP and Tau-Bfp2 were imaged with a scan speed kept at the maximum level in single slice mode with […] for a total of 60s to capture microtubule dynamics. h2a:H2A-GFP time-lapse recordings were produced (Zeiss LSM880 AiryScan confocal microscope) with 1 μm sections recorded every 10 min for 12 hr using 800×800 pixels. All other live fish were imaged using 1024×1024 pixels.
(§2) Cell divisions and cell death were manually counted in 12 hr movie recordings. The caudal fin was divided into 6 quadrants and individual cells in each quadrant were manually followed over 12 hr at least 3 times sequentially to capture cell divisions and dying cell behaviors.
To examine the effects of EMD534085 on mitosis, cell divisions in keratinocytes expressing nuclear h2a-h2a:GFP were quantified using 12 hr time-lapse imaging. […] The few divisions present were mostly restricted to the distal notochord region, with an average of 0.96±0.20/12 hr divisions at 3dpf and 1.16±0.44/12 hr at 6dpf in this region (shown in FIG. 6A).

[2] = system: caudal fin keratinocytes (cell death); experiment: Keratinocyte cell death, 12 hr time-lapse imaging; type: in vivo, zebrafish
Protocol: as §1, §2

[3] = system: epidermal keratinocytes (detyrosinated microtubules); experiment: Hind paw pad skin GluTub/DAPI histology in mice; type: in vivo, mouse; settings: 24 mg/kg paclitaxel i.p.
Protocol: Paws and back skin were collected at predetermined time points, placed in 10% formalin, and stored overnight at 4 °C. Samples were embedded in paraffin and sectioned at 7 μm, deparaffinized, washed with PBS, and incubated at room temperature for 5 min in 0.1% Triton X-100 in PBS and then blocked for 30 min (5% BSA). Sections were incubated with primary antibody diluted in blocking solution, overnight at 4 °C in a humidity chamber. Following PBS washes, sections were incubated for 1 h at room temperature with a secondary antibody. Tissues were mounted and assessed for staining. Antibodies used were against detyrosinated tubulin Millipore AB3201, p-KIF11 Invitrogen PA5-38647, alpha-tubulin Proteintech 66031-1-Ig, mouse Alexa Fluor 488 Invitrogen A21202, and rabbit Alexa flour 546 Invitrogen A10040. DAPI was used for nuclei counterstaining.
Immunofluorescence staining was performed with a widefield microscopy using a Plan-Apochromatix 100× objective lens (oil immersion, numerical aperture [NA]1.4), 20× and 10× objective lens on inverted Zeiss Axio Observer Z1 using AxioVision 4.8 software. Images were acquired using a monochrome Zeiss Axio Cam MRm CCD camera. Images were processed with the NIH Image J software.
These mice were then sacrificed and the skin of the hind paw pad was fixed in 4% paraformaldehyde, followed by sectioning and staining with 1) anti-GluTub (to detect detyrosinated microtubules) and 2) DAPI to detect nuclei.

[4] = alone or with EMD534085 20 mg/kg x3
[5] = 22 μM paclitaxel, alone or with EMD534085, 96 hr

SMILES | axon branch number (cutaneous sensory axons; EMD534085 alone) [branches/50 μm] | mitotic divisions per animal ([1]; EMD534085 alone, 96 hr) | cell death ([2]; EMD534085 alone, 96 hr) [dying cells/caudal fin] | number of epidermal keratinocytes with dMT [3, 4] | axon branch number (cutaneous sensory axons; 100 nM paclitaxel, alone or with 48 hr EMD534085) [branches/50 μm] | axon branch number (cutaneous sensory axons; 22 μM paclitaxel, alone or with EMD534085) [branches/50 μm] | axon branches in the caudal fin (cutaneous sensory axons; cyba−/− fish) | axon degeneration after stretching (cutaneous sensory axons; paclitaxel-treated and stretched cyba−/− mutants) | axon branches in the caudal fin (cutaneous sensory axons; wildtype) | mitotic divisions per animal ([1]; 100 nM paclitaxel, 96 hr) | mitotic divisions per animal [1, 5] | cell death ([2]; 100 nM paclitaxel, alone or with EMD534085, 96 hr) [dying cells/caudal fin] | cell death [2, 5] [dying cells/caudal fin] | GluTub fluorescence [3] | brittle skin / empty regions in the stratum spinosum [3, 4]
CN(C)CCNC(=O)NC[C@H]1CC[C@@H]2[C@H](O1)c1cc(C(F)(F)F)ccc1N[C@H]2c1ccccc1 [EMD534085] | 10.25±0.47 | 1.27±0.46 /12 hr | 0.81±0.26 | The increase was dampened when paclitaxel was injected with EMD534085 |  |  |  |  |  |  |  |  |  |  | 
CC(=O)O[C@H]1C(=O)[C@@]2(C)[C@H]([C@H](OC(=O)c3ccccc3)[C@]3(O)C[C@H](OC(=O)[C@H](O)[C@@H](NC(=O)c4ccccc4)c4ccccc4)C(C)=C1C3(C)C)[C@]1(OC(C)=O)CO[C@@H]1C[C@@H]2O [paclitaxel] |  |  |  | an increase with paclitaxel treatment | 9.86±0.43 | 7.54±0.56 | no change was found within the cyba−/− group | rescued in paclitaxel-treated and stretched cyba−/− mutants | a decrease in axon branches | 0.72±0.423 | 1.4±0.67 | 0.18±0.18 | 0.6±0.3 | increased GluTub fluorescence | brittle skin in the stratum spinosum

Source: patent US20260345584A1, “METHODS AND PHARMACEUTICAL COMPOSITIONS FOR TREATING CHEMOTHERAPY-INDUCED PERIPHERAL NEUROPATHY WITH EG5 INHIBITORS” (UNIVERSITY OF MIAMI, priority 2023, published 2026)
